Test results: patent US20250223303A1, “TRICYCLIC BORONIC ACID DERIVATIVE, AND PREPARATION METHOD THEREFOR AND APPLICATION THEREOF” (priority 2021, published 2025)

Columns and labels:
[1] = test system: Escherichia coli ARLG 2829; assay: MIC test of compounds in combination with antibiotics, Escherichia coli ARLG 2829; conditions: for MIC of biapenem in combination with compound, Escherichia coli ARLG-2829 NDM-5, OXA-1: Biapenem + compound (8 μg/mL); for MIC of meropenem in combination with compound, Escherichia coli ARLG-2829 NDM-5, OXA-1: Meropenem + compound (8 μg/mL)
[2] = test system: Klebsiella pneumoniae ARLG 1196; assay: MIC test of compounds in combination with antibiotics, Klebsiella pneumoniae ARLG 1196; conditions: for MIC of biapenem in combination with compound, Klebsiella pneumoniae ARLG-1196 CTM-1 group, SHV, NDM, TEM: Biapenem + compound (8 μg/mL); for MIC of meropenem in combination with compound, Klebsiella pneumoniae ARLG-1196 CTM-1 group, SHV, NDM, TEM: Meropenem + compound (8 μg/mL)
[3] = test system: Klebsiella pneumoniae ATCC BAA-2470; assay: MIC test of compounds in combination with antibiotics, Klebsiella pneumoniae ATCC BAA-2470; conditions: for MIC of biapenem in combination with compound, Klebsiella pneumoniae ATCC BAA-2470 NDM-1: Biapenem + compound (8 μg/mL); for MIC of meropenem in combination with compound, Klebsiella pneumoniae ATCC BAA-2470 NDM-1: Meropenem + compound (8 μg/mL)
[4] = test system: Klebsiella pneumoniae ATCC BAA-1705; assay: MIC test of compounds in combination with antibiotics, Klebsiella pneumoniae ATCC BAA-1705; conditions: for MIC of biapenem in combination with compound, Klebsiella pneumoniae ATCC BAA-1705 KPC-2: Biapenem + compound (8 μg/mL); for MIC of meropenem in combination with compound, Klebsiella pneumoniae ATCC BAA-1705 KPC-2: Meropenem + compound (8 μg/mL)
[5] = test system: Acinetobacter baumannii WX-AB005; assay: MIC test of compounds in combination with antibiotics, Acinetobacter baumannii WX-AB005; conditions: for MIC of biapenem in combination with compound, Acinetobacter baumannii WX-AB005: Biapenem + compound (8 μg/mL); for MIC of meropenem in combination with compound, Acinetobacter baumannii WX-AB005: Meropenem + compound (8 μg/mL)
[6] = test system: Acinetobacter baumannii WX-AB013; assay: MIC test of compounds in combination with antibiotics, Acinetobacter baumannii WX-AB013; conditions: for MIC of biapenem in combination with compound, Acinetobacter baumannii WX-AB013: Biapenem + compound (8 μg/mL); for MIC of meropenem in combination with compound, Acinetobacter baumannii WX-AB013: Meropenem + compound (8 μg/mL)
[7] = test system: Acinetobacter baumannii ARLG-1791 OXA-23; assay: MIC test of compounds in combination with antibiotics, Acinetobacter baumannii ARLG-1791; conditions: for MIC of biapenem in combination with compound, Acinetobacter baumannii ARLG-1791 OXA-23: Biapenem + compound (8 μg/mL); for MIC of meropenem in combination with compound, Acinetobacter baumannii ARLG-1791 OXA-23: Meropenem + compound (8 μg/mL)
[8] = test system: Acinetobacter baumannii ARLG-1809 OXA-23; assay: MIC test of compounds in combination with antibiotics, Acinetobacter baumannii ARLG-1809; conditions: for MIC of biapenem in combination with compound, Acinetobacter baumannii ARLG-1809 OXA-23: Biapenem + compound (8 μg/mL); for MIC of meropenem in combination with compound, Acinetobacter baumannii ARLG-1809 OXA-23: Meropenem + compound (8 μg/mL)
[9] = test system: Acinetobacter baumannii ARLG-1852 OXA-23; assay: MIC test of compounds in combination with antibiotics, Acinetobacter baumannii ARLG-1852; conditions: for MIC of biapenem in combination with compound, Acinetobacter baumannii ARLG-1852 OXA-23: Biapenem + compound (8 μg/mL); for MIC of meropenem in combination with compound, Acinetobacter baumannii ARLG-1852 OXA-23: Meropenem + compound (8 μg/mL)
[10] = test system: Acinetobacter baumannii ARLG-1853 OXA-23; assay: MIC test of compounds in combination with antibiotics, Acinetobacter baumannii ARLG-1853; conditions: for MIC of biapenem in combination with compound, Acinetobacter baumannii ARLG-1853 OXA-23: Biapenem + compound (8 μg/mL); for MIC of meropenem in combination with compound, Acinetobacter baumannii ARLG-1853 OXA-23: Meropenem + compound (8 μg/mL)

| Compound | MIC of biapenem in combination with compound, Escherichia coli ARLG-2829 NDM-5, OXA-1 [1] | MIC of meropenem in combination with compound, Escherichia coli ARLG-2829 NDM-5, OXA-1 [1] | MIC of biapenem in combination with compound, Klebsiella pneumoniae ARLG-1196 CTM-1 group, SHV, NDM, TEM [2] | MIC of meropenem in combination with compound, Klebsiella pneumoniae ARLG-1196 CTM-1 group, SHV, NDM, TEM [2] | MIC of biapenem in combination with compound, Klebsiella pneumoniae ATCC BAA-2470 NDM-1 [3] | MIC of meropenem in combination with compound, Klebsiella pneumoniae ATCC BAA-2470 NDM-1 [3] | MIC of biapenem in combination with compound, Klebsiella pneumoniae ATCC BAA-1705 KPC-2 [4] | MIC of meropenem in combination with compound, Klebsiella pneumoniae ATCC BAA-1705 KPC-2 [4] | MIC of biapenem in combination with compound, Acinetobacter baumannii WX-AB005 [5] | MIC of meropenem in combination with compound, Acinetobacter baumannii WX-AB005 [5] | MIC of biapenem in combination with compound, Acinetobacter baumannii WX-AB013 [6] | MIC of meropenem in combination with compound, Acinetobacter baumannii WX-AB013 [6] | MIC of biapenem in combination with compound, Acinetobacter baumannii ARLG-1791 OXA-23 [7] | MIC of meropenem in combination with compound, Acinetobacter baumannii ARLG-1791 OXA-23 [7] | MIC of biapenem in combination with compound, Acinetobacter baumannii ARLG-1809 OXA-23 [8] | MIC of meropenem in combination with compound, Acinetobacter baumannii ARLG-1809 OXA-23 [8] | MIC of biapenem in combination with compound, Acinetobacter baumannii ARLG-1852 OXA-23 [9] | MIC of meropenem in combination with compound, Acinetobacter baumannii ARLG-1852 OXA-23 [9] | MIC of biapenem in combination with compound, Acinetobacter baumannii ARLG-1853 OXA-23 [10] | MIC of meropenem in combination with compound, Acinetobacter baumannii ARLG-1853 OXA-23 [10] |
| --- | --- | --- | --- | --- | --- | --- | --- | --- | --- | --- | --- | --- | --- | --- | --- | --- | --- | --- | --- | --- |
| CC(Sc1ccc2c(c1C(=O)O)OB(O)C1CC21)C1CC1 (single isomer, unassigned) [Compound 16-b] | 0.5 µg/mL | 16 µg/mL | 0.5 µg/mL | 8 µg/mL | 1 µg/mL | 16 µg/mL | 0.25 µg/mL | 2 µg/mL | 4 µg/mL | 8 µg/mL | 2 µg/mL | 4 µg/mL | 1 µg/mL | 8 µg/mL | 2 µg/mL | 4 µg/mL | 0.5 µg/mL | 4 µg/mL | 1 µg/mL | 8 µg/mL |
| CC(Sc1ccc2c(c1C(=O)O)OB(O)C1CC21)C1CC1 (single isomer, unassigned) [Compound 16-d] | ≤0.125 µg/mL | 0.5 µg/mL | ≤0.125 µg/mL | 0.25 µg/mL | 0.25 µg/mL | 0.5 µg/mL | 0.5 µg/mL | 2 µg/mL | 2 µg/mL | 8 µg/mL | 0.5 µg/mL | 4 µg/mL | 0.5 µg/mL | 8 µg/mL | 0.5 µg/mL | 4 µg/mL | 0.25 µg/mL | 2 µg/mL | 0.25 µg/mL | 2 µg/mL |
| CC(Sc1ccc2c(c1C(=O)O)OB(O)C1CC21)C1CCOCC1 (single isomer, unassigned) [Compound 17-b] | 0.25 µg/mL | 4 µg/mL | 0.5 µg/mL | 8 µg/mL | 0.25 µg/mL | 64 µg/mL | 2 µg/mL | 8 µg/mL | 4 µg/mL | 32 µg/mL | 2 µg/mL | 16 µg/mL | 2 µg/mL | 16 µg/mL | 4 µg/mL | 32 µg/mL | 0.5 µg/mL | 8 µg/mL | 1 µg/mL | 16 µg/mL |
| C[C@H](Sc1ccc2c(c1C(=O)O)OB(O)[C@@H]1C[C@H]21)[C@@H]1CCCO1 [Compound 18-a] | ≤0.125 µg/mL | 2 µg/mL | ≤0.125 µg/mL | 2 µg/mL | 0.5 µg/mL | 8 µg/mL | 0.5 µg/mL | 1 µg/mL | 4 µg/mL | 8 µg/mL | 0.5 µg/mL | 4 µg/mL | 0.5 µg/mL | 8 µg/mL | 2 µg/mL | 4 µg/mL | 0.5 µg/mL | 2 µg/mL | 0.5 µg/mL | 2 µg/mL |

More lines, now with the values ahead:

| MIC of biapenem in combination with compound, Escherichia coli ARLG-2829 NDM-5, OXA-1 [1] | MIC of meropenem in combination with compound, Escherichia coli ARLG-2829 NDM-5, OXA-1 [1] | MIC of biapenem in combination with compound, Klebsiella pneumoniae ARLG-1196 CTM-1 group, SHV, NDM, TEM [2] | MIC of meropenem in combination with compound, Klebsiella pneumoniae ARLG-1196 CTM-1 group, SHV, NDM, TEM [2] | MIC of biapenem in combination with compound, Klebsiella pneumoniae ATCC BAA-2470 NDM-1 [3] | MIC of meropenem in combination with compound, Klebsiella pneumoniae ATCC BAA-2470 NDM-1 [3] | MIC of biapenem in combination with compound, Klebsiella pneumoniae ATCC BAA-1705 KPC-2 [4] | MIC of meropenem in combination with compound, Klebsiella pneumoniae ATCC BAA-1705 KPC-2 [4] | MIC of biapenem in combination with compound, Acinetobacter baumannii WX-AB005 [5] | MIC of meropenem in combination with compound, Acinetobacter baumannii WX-AB005 [5] | MIC of biapenem in combination with compound, Acinetobacter baumannii WX-AB013 [6] | MIC of meropenem in combination with compound, Acinetobacter baumannii WX-AB013 [6] | MIC of biapenem in combination with compound, Acinetobacter baumannii ARLG-1791 OXA-23 [7] | MIC of meropenem in combination with compound, Acinetobacter baumannii ARLG-1791 OXA-23 [7] | MIC of biapenem in combination with compound, Acinetobacter baumannii ARLG-1809 OXA-23 [8] | MIC of meropenem in combination with compound, Acinetobacter baumannii ARLG-1809 OXA-23 [8] | MIC of biapenem in combination with compound, Acinetobacter baumannii ARLG-1852 OXA-23 [9] | MIC of meropenem in combination with compound, Acinetobacter baumannii ARLG-1852 OXA-23 [9] | MIC of biapenem in combination with compound, Acinetobacter baumannii ARLG-1853 OXA-23 [10] | MIC of meropenem in combination with compound, Acinetobacter baumannii ARLG-1853 OXA-23 [10] | Compound |
| --- | --- | --- | --- | --- | --- | --- | --- | --- | --- | --- | --- | --- | --- | --- | --- | --- | --- | --- | --- | --- |
| ≤0.125 µg/mL | 4 µg/mL | 1 µg/mL | 2 µg/mL | 0.5 µg/mL | 8 µg/mL | 1 µg/mL | 8 µg/mL | 4 µg/mL | 8 µg/mL | 2 µg/mL | 4 µg/mL | 1 µg/mL | 8 µg/mL | 2 µg/mL | 4 µg/mL | 1 µg/mL | 4 µg/mL | 1 µg/mL | 4 µg/mL | CC(Sc1ccc2c(c1C(=O)O)OB(O)C1CC21)C1CC1 (single isomer, unassigned) [Compound 16-c] |
| 0.25 µg/mL | 8 µg/mL | 0.5 µg/mL | 8 µg/mL | 0.25 µg/mL | 32 µg/mL | 0.5 µg/mL | 8 µg/mL | 4 µg/mL | 32 µg/mL | 1 µg/mL | 8 µg/mL | 2 µg/mL | 16 µg/mL | 4 µg/mL | 32 µg/mL | 0.5 µg/mL | 4 µg/mL | 1 µg/mL | 8 µg/mL | CC(Sc1ccc2c(c1C(=O)O)OB(O)C1CC21)C1CCOCC1 (single isomer, unassigned) [Compound 17-a] |
